The target in test [1] is T1, C5a receptor (Homo sapiens, UniProt P21730).
T1 sequence (P21730 1-350): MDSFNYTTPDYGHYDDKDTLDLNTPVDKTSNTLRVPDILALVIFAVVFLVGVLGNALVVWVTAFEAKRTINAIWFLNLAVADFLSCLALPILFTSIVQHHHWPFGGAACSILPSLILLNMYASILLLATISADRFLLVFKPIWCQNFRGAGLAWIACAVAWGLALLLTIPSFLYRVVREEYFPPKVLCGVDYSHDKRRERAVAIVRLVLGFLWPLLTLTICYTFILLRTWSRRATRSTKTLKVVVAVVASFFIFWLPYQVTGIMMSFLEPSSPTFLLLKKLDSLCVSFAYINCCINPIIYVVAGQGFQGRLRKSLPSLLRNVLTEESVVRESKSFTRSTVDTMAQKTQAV
Description: Calcium Mobilization Assay (C5a-induced Ca2+ mobilization, FLIPR, differentiated U937 cells). In kind it is cell-based. More on the design: endogenous in cells; host or cells: U937 cells differentiated with dibutyryl cAMP. To be noted: […] recombinant human C5a, 20 min pre-incubation, multiple values = duplicate experiments, read-out: C5a Induced Ca Mobil. Average IC50. Put shortly: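 Ca2+ responses to 1.5 nM human C5a were read by FLIPR as peak Fluo-3 fluorescence over 2 min in U937 monocytic cells. Cells were differentiated with 1 mM dibutyryl cAMP for 2–3 days and exposed to compound for 20 min at room temperature in 1% DMSO before agonist.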

Test [2] concerns the target T1, C5a receptor. In words: [125I]-C5a Radioligand Binding Assay (competition binding, differentiated U937 cells).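 For all read-outs here: cells preincubated with compound 30 min at room temperature, then 60 min at 4 °C with radioligand, bound counts read by scintillation, nonspecific binding defined with 100 nM C5a.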 To be noted: [125I]-C5a 0.05 nM, U937 cells, multiple values = duplicate experiments; for inhibition at 1 µM: read-out: [125I]-C5a Binding % Inhibition 1 μM, test compound 1 μM; for inhibition at 10 µM: read-out: [125I]-C5a Binding % Inhibition 10 μM, test compound 10 μM; for [125I]-C5a Binding % Inhibition 1 μM: test compound 1 μM; for [125I]-C5a Binding % Inhibition 10 μM: test compound 10 μM.

What is called IC50 is the concentration needed to halve the response being measured. Broadly, the inhibition is the drop in the measured response relative to a control, in per cent. Take `CCc1cccc(CC)c1-c1cc(OC)c2c(n1)CCCC2N(C)Cc1cccnc1` (stereo not drawn) [Compound 125]: the IC50 on C5a receptor [1] was more than 10000 nM. In addition, on C5a receptor [2], the inhibition at 1 µM is -11% and the inhibition at 10 µM is 45%.

`CCN(c1cccc2ccccc12)C1CCCc2nc(-c3ccccc3C(C)C)cc(OC)c21` (stereo not drawn) [Compound 57]: the concentration for half-maximal inhibition (IC50) on C5a receptor [1] amounted to 1730 nM. At C5a receptor [2], the inhibition at 1 µM is 76% and the inhibition at 10 µM came to 89%.

Consider `CCc1cccc(CC)c1-c1cc(OC)c2c(n1)CCCC2Nc1cc(-c2ccccc2)ccc1C` (stereo not drawn) [Compound 66], for which, at C5a receptor [1], the IC50 was 2460 nM. For the same compound, at C5a receptor [2], the inhibition at 1 µM was 83% and the inhibition at 10 µM was 88%.

Take `CCc1cccc(CC)c1-c1cc(OC)c2c(n1)CCCC2N(C)c1cc(C)ccc1C` (stereo not drawn) [Compound 40]: the IC50 at C5a receptor [1] worked out at 687 nM. On C5a receptor [2], the inhibition at 1 µM was found to be 88% and the inhibition at 10 µM turned out to be 88%.

Consider `CCc1cccc(CC)c1-c1cc(OC)c2c(n1)CCCC2Nc1ccccc1C#N` (stereo not drawn) [Compound 74], for which the IC50 on C5a receptor [1] is 4900 nM. In addition, on C5a receptor [2], the inhibition at 1 µM is 19% and the inhibition at 10 µM was found to be 52%.

As for `COc1ccc(C)c(NC2CCCc3nc(-c4c(C)cccc4C)cc(OC)c32)c1` (stereo not drawn) [Compound 37], on C5a receptor [1], the 50% inhibitory concentration (IC50) came to 543 nM. Further, on C5a receptor [2], the inhibition at 1 µM turned out to be 74% and the inhibition at 10 µM turned out to be 86%.

For the compound `CCc1cccc(CC)c1-c1cc(OC)c2c(n1)CCCC2Oc1cccc2ccccc12` (stereo not drawn) [Compound 105], the IC50 on C5a receptor [1] is more than 10000 nM. Also, on C5a receptor [2], the inhibition at 1 µM was 55% and the inhibition at 10 µM was 70%.

In the case of `CCc1cccc(CC)c1-c1cc(OC)c2c(n1)CCCC2Nc1ccccc1CO` (stereo not drawn) [Compound 15], at C5a receptor [1], the IC50 was 177 nM. Besides, at C5a receptor [2], the inhibition at 1 µM was determined as 79% and the inhibition at 10 µM stood at 90%.

As to `CCc1cccc(CC)c1-c1cc(OC)c2c(n1)CCCC2Oc1cc(OC)ccc1C` (stereo not drawn) [Compound 29], the IC50 on C5a receptor [1] turned out to be 338 nM. On C5a receptor [2], the inhibition at 1 µM was 88% and the inhibition at 10 µM was 89%.

For the compound `CCc1cccc(CC)c1-c1cc(OC)c2c(n1)CCCC2N(C)C1CCCCC1` (stereo not drawn) [Compound 124], the 50% inhibitory concentration (IC50) on C5a receptor [1] was more than 10000 nM. Besides, on C5a receptor [2], the inhibition at 1 µM was 2% and the inhibition at 10 µM was 33%.

As for `CCc1cccc(CC)c1-c1cc(OC)c2c(n1)CCCC2N1CCc2cc(C(=O)O)ccc2C1` (stereo not drawn) [Compound 128], the IC50 on C5a receptor [1] was more than 10000 nM. Besides, at C5a receptor [2], the inhibition at 1 µM is -25% and the inhibition at 10 µM is -9%.

In the case of `CCc1cccc(CC)c1-c1cc(OC)c2c(n1)CCCC2N(C)CCc1ccccc1` (stereo not drawn) [Compound 87], the IC50 at C5a receptor [1] was more than 10000 nM. Moreover, at C5a receptor [2], the “[125I]-C5a Binding % Inhibition 1 μM” value was 17% and the “[125I]-C5a Binding % Inhibition 10 μM” value is on record as 51%.

Take `CCc1cccc(CC)c1-c1cc(OC)c2c(n1)CCCC2N(C)Cc1ccco1` (stereo not drawn) [Compound 92]: the IC50 on C5a receptor [1] was more than 10000 nM. At C5a receptor [2], the inhibition at 1 µM was 24% and the inhibition at 10 µM was found to be 62%.

For the compound `COc1cc(-c2c(C)cccc2C)nc2c1C(N(CC#N)c1cccc3ccccc13)CCC2` (stereo not drawn) [Compound 49], the IC50 on C5a receptor [1] came out at 1380 nM. On C5a receptor [2], the inhibition at 1 µM is 59% and the inhibition at 10 µM was determined as 80%.

Turning to `CCc1cccc(CC)c1-c1cc(SC)c2c(n1)CCCC2N(CC)c1cccc2ccccc12` (stereo not drawn) [Compound 10], the IC50 on C5a receptor [1] was determined as 82 nM. In addition, at C5a receptor [2], the inhibition at 1 µM was 92% and the inhibition at 10 µM is 94%.

As to `CCc1cccc(CC)c1-c1cc(OC)c2c(n1)CCCC2N(C)C1CCCc2ccccc21` (stereo not drawn) [Compound 83], on C5a receptor [1], the concentration for half-maximal inhibition (IC50) was 8130 nM. At C5a receptor [2], the “[125I]-C5a Binding % Inhibition 1 μM” value came to 51% and the “[125I]-C5a Binding % Inhibition 10 μM” value came out at 71%.

For `CCc1cccc(CC)c1-c1cc(OC)c2c(n1)CCCC2N(C)Cc1cccs1` (stereo not drawn) [Compound 94], the IC50 on C5a receptor [1] is more than 10000 nM. Besides, at C5a receptor [2], the inhibition at 1 µM was 56% and the inhibition at 10 µM was determined as 77%.

Regarding `CCc1cccc(CC)c1-c1cc(OC)c2c(n1)CCCC2N(C)N1CCCc2ccccc21` (stereo not drawn) [Compound 54], on C5a receptor [1], the IC50 came out at 1580 nM. For the same compound, on C5a receptor [2], the inhibition at 1 µM was determined as 74% and the inhibition at 10 µM was determined as 87%.

For `CCc1cccc(CC)c1-c1cc(OC)c2c(n1)CCCC2Nc1cccc2c1CCC2` (stereo not drawn) [Compound 121], the IC50 at C5a receptor [1] was more than 10000 nM. At C5a receptor [2], the inhibition at 1 µM was found to be 59% and the inhibition at 10 µM was 75%.

As to `CCc1cccc(CC)c1-c1cc(OC)c2c(n1)CCCC2NC1Cc2ccccc2C1` (stereo not drawn) [Compound 88], the IC50 at C5a receptor [1] is more than 10000 nM. Further, at C5a receptor [2], the inhibition at 1 µM was 25% and the inhibition at 10 µM was found to be 51%.

`CCc1cccc(CC)c1-c1cc(OC)c2c(n1)CCCC2Nc1c(C)ccc2ccccc12` (stereo not drawn) [Compound 119]: the IC50 at C5a receptor [1] was more than 10000 nM. Besides, on C5a receptor [2], the inhibition at 1 µM was 64% and the inhibition at 10 µM was 74%.

For the compound `CCc1cccc(CC)c1-c1cc(OC)c2c(n1)CCCC2OCc1ccccc1` (stereo not drawn) [Compound 86], on C5a receptor [1], the IC50 was more than 10000 nM. For the same compound, on C5a receptor [2], the inhibition at 1 µM stood at 49% and the inhibition at 10 µM is 64%.

Turning to `CCN(c1cccc2ccccc12)C1CCCc2nc(-c3c(C)cccc3C)cc(OC)c21` (stereo not drawn) [Compound 16], the IC50 at C5a receptor [1] was 133 nM. Besides, on C5a receptor [2], the inhibition at 1 µM came to 88% and the inhibition at 10 µM is 90%.

Consider `CCc1cccc(CC)c1-c1cc(OC)c2c(n1)CCCC2Nc1cc(F)ccc1C` (stereo not drawn) [Compound 50], for which the IC50 at C5a receptor [1] is 1380 nM. For the same compound, on C5a receptor [2], the inhibition at 1 µM was 83% and the inhibition at 10 µM was 85%.

Regarding `CCc1cccc(CC)c1-c1cc(OC)c2c(n1)CCCC2N(C)c1cc(OC)ccc1Cl` (stereo not drawn) [Compound 47], the IC50 on C5a receptor [1] stood at 949 nM. Further, on C5a receptor [2], the inhibition at 1 µM worked out at 83% and the inhibition at 10 µM was 89%.

As for `CCc1cccc(CC)c1-c1cc(OC)c2c(n1)CCCC2N(C)c1cc(OC)ccc1OC` (stereo not drawn) [Compound 68], the IC50 on C5a receptor [1] was 2570 nM. For the same compound, at C5a receptor [2], the inhibition at 1 µM was 66% and the inhibition at 10 µM was determined as 76%.

As to `CCc1cccc(CC)c1-c1cc(OC)c2c(n1)CCCC2N1CCc2ccc(C(=O)OC)cc2C1` (stereo not drawn) [Compound 97], the 50% inhibitory concentration (IC50) on C5a receptor [1] is more than 10000 nM. Moreover, at C5a receptor [2], the inhibition at 1 µM is 47% and the inhibition at 10 µM was 59%.

As to `CCc1cccc(CC)c1-c1cc(OC)c2c(n1)CCCC2N(C)Cc1ccccc1` (stereo not drawn) [Compound 123], the IC50 on C5a receptor [1] was more than 10000 nM. Further, on C5a receptor [2], the inhibition at 1 µM came out at 3% and the inhibition at 10 µM was 39%.

For `CCc1cccc(CC)c1-c1cc(OC)c2c(n1)CCCC2Nc1ccccc1CCO` (stereo not drawn) [Compound 5], the 50% inhibitory concentration (IC50) at C5a receptor [1] amounted to 30 nM. At C5a receptor [2], the inhibition at 1 µM was 92% and the inhibition at 10 µM was 97%.

For the compound `CCc1cccc(CC)c1-c1cc(OC)c2c(n1)CCCC2N1CCc2ccc(F)cc2C1` (stereo not drawn) [Compound 45], at C5a receptor [1], the IC50 was found to be 878 nM. Besides, at C5a receptor [2], the inhibition at 1 µM was 74% and the inhibition at 10 µM was found to be 87%.

Take `CCc1cccc(CC)c1-c1cc(OC)c2c(n1)CCCC2N(CC)c1cccc2c1CCCC2` (stereo not drawn) [Compound 24]: the IC50 at C5a receptor [1] was 216 nM. On C5a receptor [2], the inhibition at 1 µM is 88% and the inhibition at 10 µM stood at 91%.

`CCc1cccc(CC)c1-c1cc(OC)c2c(n1)CCCC2N1CCc2c(cccc2C(=O)O)C1` (stereo not drawn) [Compound 129]: the IC50 at C5a receptor [1] is more than 10000 nM. In addition, on C5a receptor [2], the inhibition at 1 µM was -46% and the inhibition at 10 µM is -20%.

On to `CCN(c1cccc(C)c1C)C1CCCc2nc(-c3c(C)cccc3C)cc(OC)c21` (stereo not drawn) [Compound 76], for which, on C5a receptor [1], the IC50 amounted to 5130 nM. In addition, on C5a receptor [2], the inhibition at 1 µM was 83% and the inhibition at 10 µM came out at 85%.

As to `CCc1cccc(CC)c1-c1cc(OC)c2c(n1)CCCC2Nc1cc(OC)ccc1OC` (stereo not drawn) [Compound 34], the IC50 on C5a receptor [1] is 417 nM. At C5a receptor [2], the inhibition at 1 µM amounted to 83% and the inhibition at 10 µM came out at 89%.

Regarding `CCOc1cc(-c2c(CC)cccc2CC)nc2c1C(N(CC)c1cccc3ccccc13)CCC2` (racemic) [Compound 8, (±)-[2-(2,6-Diethyl-Phenyl)-4-ethoxy-5,6,7,8-tetrahydro-quinolin-5-yl]-ethyl-naphthlen-1-yl-amine], on C5a receptor [1], the half-inhibitory concentration (IC50) worked out at 67 nM. At C5a receptor [2], the inhibition at 1 µM turned out to be 94% and the inhibition at 10 µM turned out to be 96%.

As for `CCc1ccccc1NC1CCCc2nc(-c3c(CC)cccc3CC)cc(OC)c21` (stereo not drawn) [Compound 41], on C5a receptor [1], the IC50 is 732 nM. For the same compound, on C5a receptor [2], the inhibition at 1 µM came out at 85% and the inhibition at 10 µM came out at 86%.

Take `CCN(c1cccc2ccccc12)C1CCCc2nc(-c3c(C)cc(OC)cc3C)cc(OC)c21` (stereo not drawn) [Compound 21]: the IC50 at C5a receptor [1] came to 169 nM. Also, at C5a receptor [2], the inhibition at 1 µM is 91% and the inhibition at 10 µM is 93%.

As to `CCc1cccc(CC)c1-c1cc(OC)c2c(n1)CCCC2N1CCc2ccc(Cl)cc2C1` (stereo not drawn) [Compound 51], the IC50 on C5a receptor [1] amounted to 1410 nM. For the same compound, on C5a receptor [2], the inhibition at 1 µM worked out at 83% and the inhibition at 10 µM is 89%.
